Test results taken from US20250325527A1, “KIF18A INHIBITION FOR TREATMENT OF CANCER” (AMGEN INC., priority 2022, published 2025).

Key:
[1] = system: HCC1806 cells; assay: 5-day MTT endpoint viability assay, HCC1806
Protocol: The following day, drugs were added as indicated and cells were cultured for 5 days. […] 100 μL 10% SDS, 0.01M HCl solution was then added to each well to dissolve the formazan crystals. Absorbance was measured with a spectrophotometer at 570 nm. % Viability=(Signal[sample]−Signal[DMN])/(Signal [DMSO]−Signal [DMN])×100 unless specifically noted. % Toxicity=100%−Viability. % Viability rescue=(Signal [sample, KIF18Ai]−Signal[WT, KIF18Ai])/(Signal[WT, DMSO]−Signal [WT, KIF18Ai])×100. Drug titration curves were derived using the equation for “[Inhibitor] vs. response−Variable slope (four-parameter)” in GraphPad Prism 7 for Mac OS X (GraphPad Software, La Jolla, USA).

[2] = system: HCC1806 cells; assay: mitotic duration and fate (slippage) by live-cell timelapse imaging of cells arrested with DMN; format: cell-based
Protocol: To define the capacity of KIF18Ai-resistant HCC1806 clonal lines to maintain the mitotic state, we arrested cells indefinitely in mitosis with the Eg5 inhibitor dimethylenastron (DMN) which causes spindle collapse and chronic SAC activation^28,29. We then monitored mitotic slippage by live-cell timelapse imaging.
Fluorescent cell lines were seeded into either 4-chamber, 35-mm glass-bottom culture dishes (Greiner), 4-well chamber slides (Ibidi), or 8-well chamber slides (Ibidi). The day of the experiment, cells were transferred to CO2-independent base medium (ThermoFischer) with the appropriate additives for each cell line and maintained at 37° C. in an environmental control station. Long-term time-lapse imaging was performed using a Deltavision Elite system (GE Healthcare) controlling a Scientific CMOS camera (pco.edge 5.5.). Images were acquired with an Olympus 40×1.4 NA oil objective. For general mitotic phenotypes, cells were treated as indicated, then images were captured every 5 min in 9×3 μm z-sections in respective fluorescent channels and by differential inference contrast. For CyclinB1-EYFP experiments, cells were treated as indicated, then images were captured every 2.5 min in 9×3 μm z-sections in respective fluorescent channels and by differential inference contrast. Phenotypic evaluation and intensity measurements were taken from maximum intensity projected 2D time-lapse images. Mitotic duration was calculated as the time taken from nuclear envelope breakdown to the onset of anaphase. Metaphase to anaphase duration was calculated as the time from the appearance of the last, uninterrupted metaphase plate to the onset of anaphase. Analysis of Cyclin B1-EYFP mitotic intensity was measured from NEBD through 30 min past anaphase using FIJI. Intensity traces were manually aligned to the metaphase to anaphase inflection point, then normalized in R. If traces never inflected, they were aligned to 30 min past NEBD.

[3] = system: panel of sensitive and insensitive cell lines (RPE1, MCF10A, HCT116, DLD1, MCF7, MDA-MB-157, HCC1806, HeLa, OVCAR-3, OVCAR-8); assay: 5-day MTT endpoint viability assay, cell line panel; format: cell-based; details: sensitive cell lines co-treated with KIF18Ai and low doses of Reversine (30 nM, FIG. 9E)
From the text: To investigate the determinants of KIF18A dependency in cancer, we used AM-1882, a highly specific small molecule KIF18A inhibitor (KIF18Ai) developed by Amgen Inc^21,23. Treatment with KIF18Ai causes stable binding of the KIF18A motor domain to microtubules^23, leading to the relocation of KIF18A in mitosis from kinetochores to spindle poles in all the cell lines tested (FIG. 8a and FIG. 15a). This mis-localization phenocopies the effect of KIF18A loss^21, likely by blocking KIF18A-induced stabilization of microtubule plus ends^16. We examined the effect of KIF18Ai on cell viability using a 5-day endpoint assay performed with non-transformed cells (RPE1 and MCF10A) and a panel of colon (HCT116, DLD1), breast (MCF7, MDA-MB-157, HCC1806), and ovarian (HeLa, OVCAR-3, OVCAR-8) cancer cell lines (FIG. 8b,c and FIG. 15b).

[4] = system: breast and ovarian cancer cell lines (DNA barcoded human cancer cell lines); assay: PRISM screen, 5-day cell growth assay of pooled DNA barcoded cancer cell lines; format: cell-based; details: TP53 MUT cell lines, 5 days
Protocol: FIG. 1 is a series of scatter plots of pooled barcoded cancer cell lines treated in a 5-day cell growth assay with DMSO or KIF18Ai C9 (8-point concentration range), relative abundance of unique cell line barcodes was measured to estimate cell viability. KIF18Ai C9 AUC values versus CIN features (whole genome doubling (WGD), ploidy, aneuploidy score (AS)) plus TP53 status in breast and ovarian cancer cell lines (n=58). Scatter plots show KIF18Ai C9 AUC versus CIN features plus TP53 status with mean AUC indicated for each group. Colored cell lines overlap with KIF18Ai C9 sensitivity in nonbarcoded screens. Dotted line indicates AUC value of 0.65. ** p=0.0037, *** p=0.0004 by unpaired t-test.
To investigate the anti-proliferative effects of KIF18A inhibitors, a PRISM (profiling relative inhibition simultaneously in mixtures) screen was conducted on a panel of DNA barcoded human cancer cell lines. Pooled cancer cell lines were treated with DMSO or increasing concentrations of KIF18A inhibitor, Compound C9, for 5 days, and then cell viability was determined by measuring the abundance for each unique DNA barcode. We divided the cell lines by CIN features (WGD, ploidy, aneuploidy score) and further subdivided them based on TP53 status. In the TP53^MUT cancer cell lines, we observed a significant enrichment for KIF18A inhibitor sensitivity in cell lines that were WGD+ with >2.1 ploidy (55%, 12 of 22 sensitive) relative to WGD− with ≤2.1 ploidy (21%, 4 of 19 sensitive) (p=0.0004).

c1nc2nc(Nc3ccc(N4CCOCC4)cc3)nc(NC3CCCCC3)c2[nH]1 [Reversine]
effect on cells ([1]; higher concentrations of Reversine): toxic to cells
rescue of KIF18Ai toxicity ([1]; low doses of Reversine, WT and UBE2S overexpressing HCC1806 treated with KIF18Ai): potent rescue of KIF18Ai toxicity
time to exit mitosis (all cells) ([2]; SAC function abolished with Reversine, compared with DMN arrest): less than an hour
rescue of KIF18Ai toxicity [3]: rescued KIF18Ai toxicity

CC(C)(C)NS(=O)(=O)c1cccc(NC(=O)c2ccc(S(=O)(=O)NC(C)(C)C)cc2N2CCC3(CC2)CC3)c1 [Compound C9, 4-(N-(tert-butyl)sulfamoyl)-N-(3-(N-(tert-butyl)sulfamoyl)phenyl)-2-(6-azaspiro[2.5]octan-6-yl)benzamide]
cell lines sensitive to KIF18A inhibitor ([4]; WGD+ with >2.1 ploidy (12 of 22 sensitive)): 55%
cell lines sensitive to KIF18A inhibitor ([4]; WGD− with ≤2.1 ploidy (4 of 19 sensitive)): 21%
cell lines sensitive to KIF18A inhibitor ([4]; aneuploidy score >8 (16 of 34 sensitive)): 47%
cell lines sensitive to KIF18A inhibitor ([4]; aneuploidy score ≤8 (0 of 7 sensitive)): 0%

O=C1NC(=NCc2cccs2)S/C1=C\c1ccc2ncccc2c1 [RO-3306]
rescue of viability in KIF18Ai-treated cells ([1]; sub-saturating concentrations of RO-3306): robust rescue of viability

CC1(C)CC(=O)C2=C(C1)NC(=S)NC2c1cccc(O)c1 (stereo not drawn) [DMN, dimethylenastron]
slippage rate ([2]; Cyclin B1 knockout HCC1806): 93%
time spent in mitosis ([2]; Cyclin B1 knockout HCC1806): 11 h
rate of mitotic slippage ([2]; HSET knockout HCC1806): 27%
time in mitosis ([2]; HSET knockout HCC1806): 19 h
cell death ([2]; WT HCC1806): 75%
mitotic slippage ([2]; WT HCC1806): 25%
time in mitosis (average) ([2]; WT HCC1806): 25 h
rate of mitotic slippage ([2]; hypomorphic MAD1 HCC1806): 95%
time in mitosis ([2]; hypomorphic MAD1 HCC1806): 23 h
